Experimental data from PubChem BioAssay AID624167 (Sanford-Burnham Center for Chemical Genomics, 2012).
Calls of active or inactive are those of the source.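 The calls were made as follows: active = mean IC50 for reducing PEG3 promoter reporter signal at or below a set limit, with IC50 above the limit in both counter screens; inactive = the rest, including counter screen hits.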

Legend:
GAPDH = experiment: Peg3 promoter luciferase inhibitors, potency, dose response, cell-based, HeLa, CREF/GAPDH counter-screen panel (AID 624167); settings: CREF/GAPDH counter-screens
PEG-3 [1] = molecular target: PEG-3 (UniProt Q6IN02); experiment: as above; settings: HeLa PEG-Prom luciferase reporter, overnight, CREF/GAPDH counter-screens, mean of runs
PEG-3 (UniProt Q6IN02), sequence (Q6IN02 whole entry, looked up): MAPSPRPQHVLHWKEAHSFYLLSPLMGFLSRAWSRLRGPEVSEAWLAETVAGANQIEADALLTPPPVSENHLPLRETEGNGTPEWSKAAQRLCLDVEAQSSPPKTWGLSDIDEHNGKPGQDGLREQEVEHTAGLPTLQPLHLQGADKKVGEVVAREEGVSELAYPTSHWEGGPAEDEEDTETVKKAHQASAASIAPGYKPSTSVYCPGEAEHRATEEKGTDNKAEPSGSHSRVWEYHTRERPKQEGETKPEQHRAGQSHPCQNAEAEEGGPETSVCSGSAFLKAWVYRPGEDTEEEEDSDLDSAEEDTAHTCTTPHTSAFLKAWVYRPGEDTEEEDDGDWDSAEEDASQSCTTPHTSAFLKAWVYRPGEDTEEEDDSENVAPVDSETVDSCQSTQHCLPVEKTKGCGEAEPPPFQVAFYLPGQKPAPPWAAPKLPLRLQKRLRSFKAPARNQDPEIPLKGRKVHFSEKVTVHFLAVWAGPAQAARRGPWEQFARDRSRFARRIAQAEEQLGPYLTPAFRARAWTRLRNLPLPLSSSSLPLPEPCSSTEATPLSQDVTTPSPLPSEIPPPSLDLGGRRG

Rat fibroblasts (CREF) = experiment: as above; settings: CREF/GAPDH counter-screens
[2] = as above; settings: CREF/GAPDH counter-screens; GAPDH; mean of runs
PEG-3 [3] = experiment: as above; settings: HeLa PEG-Prom luciferase reporter, overnight, CREF/GAPDH counter-screens
[4] = run 1, dose range 1, individual replicate IC50 per panel
[5] = run 2, dose range 1, individual replicate IC50 per panel

| SMILES | IC50 (GAPDH; [4]) | IC50 (GAPDH; [5]) | IC50 (PEG-3 [1]) | IC50 (Rat fibroblasts (CREF); mean of runs) | IC50 (Rat fibroblasts (CREF); [4]) | IC50 (Rat fibroblasts (CREF); [5]) | IC50 [2] | IC50 (PEG-3 [3]; [4]) | IC50 (PEG-3 [3]; [5]) |
| --- | --- | --- | --- | --- | --- | --- | --- | --- | --- |
| O=C(c1ccco1)N1CCN(C(c2ccccc2Cl)c2nnnn2Cc2cccs2)CC1 (stereo unspecified) | 14.5 µM | 58.7 µM | inactive | > 100 µM (inactive) | > 100 µM | > 100 µM | inactive | 3.28 µM | > 100 µM |
| C=CCc1cccc(/C=N/NC(=O)C(C)Nc2cccc(C)c2)c1O (stereo unspecified) | > 100 µM | > 100 µM | 7.04 µM | > 100 µM (inactive) | > 100 µM | > 100 µM | > 100 µM (inactive) | 12.2 µM | 1.89 µM |
| COc1cc(C(=O)N/N=C(\c2ccccc2)c2ccccn2)cc(OC)c1OC | > 100 µM | > 100 µM | 2.9 µM | 58.4 µM (inactive) | 44.9 µM | 72 µM | > 100 µM (inactive) | 3.09 µM | 2.71 µM |
| CCCn1nc(C(=O)Nc2nc(-c3ccccn3)cs2)c2ccccc2c1=O | > 100 µM | 80.9 µM | 7.73 µM | > 100 µM (inactive) | > 100 µM | > 100 µM | inactive | 7.15 µM | 8.31 µM |
| CCCC(=O)NC(c1ccc(Cl)cc1)c1ccc2cccnc2c1O (stereo unspecified) | 27.5 µM | 58.5 µM | 3.29 µM | > 100 µM (inactive) | > 100 µM | > 100 µM | inactive | 2.29 µM | 4.28 µM |
| COc1ccc(N(C(=O)CCl)C(C(=O)NC2CCCCC2)c2cccnc2)cc1 (stereo unspecified) | 40.4 µM | 39.6 µM | 8.05 µM | 2.68 µM | 2.81 µM | 2.56 µM | inactive | 6.62 µM | 9.49 µM |
| CN(C(=O)COC(=O)/C=C/c1cccc([N+](=O)[O-])c1)C1CCS(=O)(=O)C1 (stereo unspecified) | > 100 µM | > 100 µM | 0.452 µM | > 100 µM (inactive) | > 100 µM | > 100 µM | > 100 µM (inactive) | 0.452 µM | 0.452 µM |
| O=C(/C=C/c1ccc(Cl)c([N+](=O)[O-])c1)c1ccc(O)cc1 | 17.9 µM | 15.3 µM | 6.34 µM | 26.5 µM | 29.7 µM | 23.2 µM | 16.6 µM | 8.19 µM | 4.5 µM |
| CC(C)(C)c1ccc(Cn2c(=O)cnc3ccccc32)cc1 | 5.99 µM | 6.44 µM | inactive | 51 µM (inactive) | > 100 µM | 1.93 µM | 6.22 µM | 5.23 µM | > 100 µM |
| O=C(O)c1ccc(N/N=C/c2ccc(OC(=O)c3cccc(Cl)c3)cc2)cc1 | 0.554 µM | 5.92 µM | 9.61 µM | > 100 µM (inactive) | > 100 µM | > 100 µM | 3.23 µM | 6.27 µM | 12.9 µM |
| O=C(N/N=C\c1c(O)ccc2ccccc12)c1cncc(Br)c1 | 40.3 µM | 69.7 µM | 0.512 µM | 9.73 µM | 2.43 µM | 17 µM | inactive | 0.52 µM | 0.504 µM |
| Cc1ccc(-n2c(N)c(C(=O)Nc3c(C)n(C)n(-c4ccccc4)c3=O)c3nc4ccccc4nc32)cc1 | 26.6 µM | 28.5 µM | 7.52 µM | 43.3 µM | 37.1 µM | 49.4 µM | 27.5 µM | 9.84 µM | 5.21 µM |
| CN1OC[C@@H]2CN(S(=O)(=O)c3cccc(C(F)(F)F)c3)[C@H](c3ccc(-c4cc5ccccc5o4)cc3)C[C@@H]21 | 44.3 µM | 37.8 µM | 9.9 µM | > 100 µM (inactive) | > 100 µM | > 100 µM | inactive | 18.7 µM | 1.06 µM |
| COc1ccc(-n2c(O)c(/C=N/Nc3nc(C)cc(C)n3)c3ccccc3c2=O)cc1OC | > 100 µM | > 100 µM | 4.99 µM | 50.9 µM (inactive) | 44.5 µM | 57.3 µM | > 100 µM (inactive) | 2.71 µM | 7.28 µM |
| OCCCNc1nccc(-c2cc(Nc3cccc(Cl)c3)ncn2)n1 | > 100 µM | 0.913 µM | 0.497 µM | 59.6 µM (inactive) | 19.1 µM | > 100 µM | inactive | 0.661 µM | 0.333 µM |
| COC(COC(N)=O)C1=C(N2CC2)C(=O)C(C)=C(N2CC2)C1=O (stereo unspecified) | 10.2 µM | 19.8 µM | 0.938 µM | 4.51 µM | 8.05 µM | 0.958 µM | 15 µM | 1.29 µM | 0.583 µM |
| COc1ccc(/C=C2\SC(=S)N(CCCC(=O)NNC(=O)c3ccccc3O)C2=O)cc1 | 21.9 µM | > 100 µM | 3.86 µM | 71.6 µM (inactive) | > 100 µM | 43.3 µM | inactive | 6.31 µM | 1.41 µM |
| COc1ccc2c(c1)c(=Cc1ccc(N(C)C)cc1)c1cc(-c3ccccc3)[n+](C)n12 | 6.61 µM | 7.46 µM | 2.27 µM | 26.9 µM | 24.8 µM | 29.1 µM | 7.04 µM | 3.17 µM | 1.37 µM |

| SMILES | IC50 (GAPDH; [4]) | IC50 (GAPDH; [5]) | IC50 (PEG-3 [1]) | IC50 (Rat fibroblasts (CREF); mean of runs) | IC50 (Rat fibroblasts (CREF); [4]) | IC50 (Rat fibroblasts (CREF); [5]) | IC50 [2] | IC50 (PEG-3 [3]; [4]) | IC50 (PEG-3 [3]; [5]) |
| --- | --- | --- | --- | --- | --- | --- | --- | --- | --- |
| C=CCn1c(COc2ccccc2)nnc1SC(C)C(=O)N/N=C/c1cc(Cl)ccc1O (stereo unspecified) | > 100 µM | > 100 µM | 4.26 µM | > 100 µM (inactive) | > 100 µM | > 100 µM | > 100 µM (inactive) | 5.09 µM | 3.43 µM |
| COc1cc2nc(CN3CC=C(c4ccccc4)CC3)[nH]c(=O)c2cc1OC | 60.9 µM | 62.2 µM | 6.47 µM | > 100 µM (inactive) | > 100 µM | > 100 µM | inactive | 7.71 µM | 5.22 µM |
| O=C(N/N=C/c1c(O)ccc2ccccc12)c1ccc(CO)nc1 | > 100 µM | > 100 µM | 3.35 µM | 41.7 µM | 31 µM | 52.5 µM | > 100 µM (inactive) | 3.98 µM | 2.72 µM |
| CC1=CC2C(C(O)CC3(C)C2CC(C)C32OCOC23COCO3)C2(C)C/C(=C\O)C(=O)C=C12 (stereo unspecified) | 7.69 µM | 10.6 µM | 6.07 µM | 8.5 µM | 7.69 µM | 9.3 µM | 9.16 µM | 7.13 µM | 5.01 µM |
| Clc1cccc(-c2nc(-c3ccccn3)no2)c1 | – | – | 4.8 µM | 2.23 µM | 1.82 µM | 2.63 µM | – | 3.68 µM | 5.92 µM |
| Cc1csc(NC(=O)c2cn3ccccc3n2)n1 | – | – | 4.15 µM | 1.09 µM | 1.11 µM | 1.07 µM | – | 2.68 µM | 5.62 µM |
| COCCn1c(C)cc(C(=O)CSc2nnc(C)s2)c1C | – | – | 9.4 µM | 8.78 µM | 6.79 µM | 10.8 µM | – | 5.44 µM | 13.4 µM |
| CCc1ccc(C(=O)Nc2nc3ccccc3[nH]2)cc1 | – | – | 2.59 µM | 0.476 µM | 0.298 µM | 0.654 µM | – | 2.24 µM | 2.95 µM |
| C=C1CC(COc2ccc3c(C)c(Cl)c(=O)oc3c2)(c2ccccc2)OC1=O (stereo unspecified) | – | – | 5.04 µM | 9.11 µM | 9.32 µM | 8.9 µM | – | 6.47 µM | 3.62 µM |
| Cc1ccc2nc(-c3ccc(Br)cc3)cn2c1 | – | – | 6.1 µM | 7.81 µM | 2.93 µM | 12.7 µM | – | 3.13 µM | 9.07 µM |
| CCn1nc(C)cc1-c1nnc(Sc2ncc([N+](=O)[O-])s2)n1C | – | – | 6.37 µM | 4.87 µM | 5.31 µM | 4.43 µM | – | 8.65 µM | 4.09 µM |
| COc1ccc(C(=O)Nc2nc3ccccc3s2)c(OC)c1 | – | – | 1.75 µM | 0.319 µM | 0.328 µM | 0.309 µM | – | 2.56 µM | 0.95 µM |
| COc1ccc(CCN2C(=O)C=CC2=O)cc1OC | – | – | 8.69 µM | 7.92 µM | 6.39 µM | 9.45 µM | – | 10 µM | 7.39 µM |
| CC(C)CC(=NNC(=O)c1ccncc1)c1cc(Cl)ccc1O | – | – | 3.41 µM | 10.3 µM | 8.21 µM | 12.3 µM | – | 3.35 µM | 3.46 µM |
| O=c1c(Cl)c(N2CCCCC2)cnn1-c1nc2ccccc2[nH]1 | – | – | 3.25 µM | 0.714 µM | 0.81 µM | 0.618 µM | – | 3.02 µM | 3.49 µM |
| Cc1cc(C)c2nc(NNC(=O)c3ccc(S(=O)(=O)N4CC(C)CC(C)C4)cc3)sc2c1 (stereo unspecified) | – | – | 5.17 µM | 8.65 µM | 13.9 µM | 3.36 µM | – | 7.33 µM | 3.01 µM |
| CCOC(=O)c1c(-n2c(C)cc(C=C3C(=O)NC(=S)NC3=O)c2C)sc2c1CCCC2 | – | – | 5.69 µM | 11.3 µM | 20.3 µM | 2.35 µM | – | 5.9 µM | 5.47 µM |
